Reference: ChEMBL document CHEMBL4507317, “Data for DCP probe BAY-899” (2021)

Tests used:
[1] = test system: Tyrosine-protein kinase ABL1 (Homo sapiens), P00519 [H396P]; conditions: Compound concentration 1000.0 nM
[2] = test system: Tyrosine-protein kinase ABL1 (Homo sapiens), P00519 [M351T]; conditions: Compound concentration 1000.0 nM
[3] = target: Tyrosine-protein kinase ABL1 (Homo sapiens) (UniProt P00519); conditions: Compound concentration 1000.0 nM
[4] = target: Activin receptor type-1B (Homo sapiens) (UniProt P36896); conditions: Compound concentration 1000.0 nM
[5] = target: Activin receptor type-2B (Homo sapiens) (UniProt Q13705); conditions: Compound concentration 1000.0 nM
[6] = target: Tyrosine-protein kinase Blk (Homo sapiens) (UniProt P51451); conditions: Compound concentration 1000.0 nM
[7] = target: Bone morphogenetic protein receptor type-1B (Homo sapiens) (UniProt O00238); conditions: Compound concentration 1000.0 nM
[8] = target: Cytoplasmic tyrosine-protein kinase BMX (Homo sapiens) (UniProt P51813); conditions: Compound concentration 1000.0 nM
[9] = target: Serine/threonine-protein kinase MRCK gamma (Homo sapiens) (UniProt Q6DT37); conditions: Compound concentration 1000.0 nM
[10] = target: Mitogen-activated protein kinase 6 (Homo sapiens) (UniProt Q16659); conditions: Compound concentration 1000.0 nM
[11] = test system: Receptor-type tyrosine-protein kinase FLT3 (Homo sapiens), P36888 [D835V]; conditions: Compound concentration 1000.0 nM
[12] = test system: Receptor-type tyrosine-protein kinase FLT3 (Homo sapiens), P36888 [UNDEFINED MUTATION]; conditions: Compound concentration 1000.0 nM
[13] = test system: Receptor-type tyrosine-protein kinase FLT3 (Homo sapiens), P36888 [R834Q]; conditions: Compound concentration 1000.0 nM
[14] = target: Insulin receptor (Homo sapiens) (UniProt P06213); conditions: Compound concentration 1000.0 nM
[15] = target: Mast/stem cell growth factor receptor Kit (Homo sapiens) (UniProt P10721); conditions: Compound concentration 1000.0 nM
[16] = test system: Mast/stem cell growth factor receptor Kit (Homo sapiens), P10721 [D816H]; conditions: Compound concentration 1000.0 nM
[17] = target: Mitogen-activated protein kinase kinase kinase kinase 3 (Homo sapiens) (UniProt Q8IVH8); conditions: Compound concentration 1000.0 nM
[18] = target: Serine/threonine-protein kinase MARK2 (Homo sapiens) (UniProt Q7KZI7); conditions: Compound concentration 1000.0 nM
[19] = target: Tyrosine-protein kinase Mer (Homo sapiens) (UniProt Q12866); conditions: Compound concentration 1000.0 nM
[20] = target: Serine/threonine-protein kinase OSR1 (Homo sapiens) (UniProt O95747); conditions: Compound concentration 1000.0 nM
[21] = target: Serine/threonine-protein kinase PAK 5 (Homo sapiens) (UniProt Q9P286); conditions: Compound concentration 1000.0 nM
[22] = target: Cyclin-dependent kinase 18 (Homo sapiens) (UniProt Q07002); conditions: Compound concentration 1000.0 nM
[23] = test system: Phosphatidylinositol 4,5-bisphosphate 3-kinase catalytic subunit alpha isoform (Homo sapiens), P42336 [C420R]; conditions: Compound concentration 1000.0 nM
[24] = test system: Phosphatidylinositol 4,5-bisphosphate 3-kinase catalytic subunit alpha isoform (Homo sapiens), P42336 [H1047Y]; conditions: Compound concentration 1000.0 nM
[25] = target: cAMP-dependent protein kinase catalytic subunit PRKX (Homo sapiens) (UniProt P51817); conditions: Compound concentration 1000.0 nM
[26] = target: Protein-tyrosine kinase 2-beta (Homo sapiens) (UniProt Q14289); conditions: Compound concentration 1000.0 nM
[27] = target: Proto-oncogene tyrosine-protein kinase receptor Ret (Homo sapiens) (UniProt P07949); conditions: Compound concentration 1000.0 nM
[28] = target: Receptor-interacting serine/threonine-protein kinase 1 (Homo sapiens) (UniProt Q13546); conditions: Compound concentration 1000.0 nM
[29] = target: Ribosomal protein S6 kinase alpha-3 (Homo sapiens) (UniProt P51812); conditions: Compound concentration 1000.0 nM
[30] = target: Serine/threonine-protein kinase 16 (Homo sapiens) (UniProt O75716); conditions: Compound concentration 1000.0 nM
[31] = target: Serine/threonine-protein kinase TAO2 (Homo sapiens) (UniProt Q9UL54); conditions: Compound concentration 1000.0 nM
[32] = target: Serine/threonine-protein kinase TBK1 (Homo sapiens) (UniProt Q9UHD2); conditions: Compound concentration 1000.0 nM
[33] = target: Activated CDC42 kinase 1 (Homo sapiens) (UniProt Q07912); conditions: Compound concentration 1000.0 nM
[34] = target: Serine/threonine-protein kinase ULK1 (Homo sapiens) (UniProt O75385); conditions: Compound concentration 1000.0 nM
[35] = target: Vascular endothelial growth factor receptor 2 (Homo sapiens) (UniProt P35968); conditions: Compound concentration 1000.0 nM
[36] = target: Serine/threonine-protein kinase VRK2 (Homo sapiens) (UniProt Q86Y07); conditions: Compound concentration 1000.0 nM
[37] = target: Wee1-like protein kinase 2 (Homo sapiens) (UniProt P0C1S8); conditions: Compound concentration 1000.0 nM
[38] = target: Serine/threonine-protein kinase 32C (Homo sapiens) (UniProt Q86UX6); conditions: Compound concentration 1000.0 nM
[39] = target: 5-hydroxytryptamine receptor 1B (Homo sapiens) (UniProt P28222); conditions: Compound concentration 10.0 uM
[40] = target: 5-hydroxytryptamine receptor 6 (Homo sapiens) (UniProt P50406); conditions: Compound concentration 10.0 uM
[41] = target: Histamine H2 receptor (Homo sapiens) (UniProt P25021); conditions: Compound concentration 10.0 uM
[42] = target: Beta-2 adrenergic receptor (Homo sapiens) (UniProt P07550); conditions: Compound concentration 10.0 uM
[43] = target: GABA-A receptor; anion channel (Rattus norvegicus) (UniProt O09028+P15431+P18506+P18508+P19969+P20236+P23574+P23576+P28471+P28473+P30191+P62813+P63079+P63138+Q91ZM7+Q9ES14); conditions: Compound concentration 10.0 uM

Chain of Serine/threonine-protein kinase VRK2 (Homo sapiens) (Q86Y07 whole entry): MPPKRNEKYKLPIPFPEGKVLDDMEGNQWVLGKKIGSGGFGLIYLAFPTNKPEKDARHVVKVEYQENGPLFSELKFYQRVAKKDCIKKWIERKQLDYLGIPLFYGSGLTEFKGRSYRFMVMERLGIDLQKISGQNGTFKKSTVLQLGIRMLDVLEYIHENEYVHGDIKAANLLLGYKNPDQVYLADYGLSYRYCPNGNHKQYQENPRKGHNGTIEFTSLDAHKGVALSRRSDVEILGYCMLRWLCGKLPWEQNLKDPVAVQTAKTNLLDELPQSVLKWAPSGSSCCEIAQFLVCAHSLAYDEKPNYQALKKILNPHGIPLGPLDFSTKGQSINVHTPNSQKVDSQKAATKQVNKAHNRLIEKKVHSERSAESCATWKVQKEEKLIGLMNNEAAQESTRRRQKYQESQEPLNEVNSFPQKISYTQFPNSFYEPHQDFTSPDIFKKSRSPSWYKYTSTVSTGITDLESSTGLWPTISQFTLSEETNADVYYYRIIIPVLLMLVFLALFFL
Chain of Serine/threonine-protein kinase ULK1 (Homo sapiens) (O75385 whole entry): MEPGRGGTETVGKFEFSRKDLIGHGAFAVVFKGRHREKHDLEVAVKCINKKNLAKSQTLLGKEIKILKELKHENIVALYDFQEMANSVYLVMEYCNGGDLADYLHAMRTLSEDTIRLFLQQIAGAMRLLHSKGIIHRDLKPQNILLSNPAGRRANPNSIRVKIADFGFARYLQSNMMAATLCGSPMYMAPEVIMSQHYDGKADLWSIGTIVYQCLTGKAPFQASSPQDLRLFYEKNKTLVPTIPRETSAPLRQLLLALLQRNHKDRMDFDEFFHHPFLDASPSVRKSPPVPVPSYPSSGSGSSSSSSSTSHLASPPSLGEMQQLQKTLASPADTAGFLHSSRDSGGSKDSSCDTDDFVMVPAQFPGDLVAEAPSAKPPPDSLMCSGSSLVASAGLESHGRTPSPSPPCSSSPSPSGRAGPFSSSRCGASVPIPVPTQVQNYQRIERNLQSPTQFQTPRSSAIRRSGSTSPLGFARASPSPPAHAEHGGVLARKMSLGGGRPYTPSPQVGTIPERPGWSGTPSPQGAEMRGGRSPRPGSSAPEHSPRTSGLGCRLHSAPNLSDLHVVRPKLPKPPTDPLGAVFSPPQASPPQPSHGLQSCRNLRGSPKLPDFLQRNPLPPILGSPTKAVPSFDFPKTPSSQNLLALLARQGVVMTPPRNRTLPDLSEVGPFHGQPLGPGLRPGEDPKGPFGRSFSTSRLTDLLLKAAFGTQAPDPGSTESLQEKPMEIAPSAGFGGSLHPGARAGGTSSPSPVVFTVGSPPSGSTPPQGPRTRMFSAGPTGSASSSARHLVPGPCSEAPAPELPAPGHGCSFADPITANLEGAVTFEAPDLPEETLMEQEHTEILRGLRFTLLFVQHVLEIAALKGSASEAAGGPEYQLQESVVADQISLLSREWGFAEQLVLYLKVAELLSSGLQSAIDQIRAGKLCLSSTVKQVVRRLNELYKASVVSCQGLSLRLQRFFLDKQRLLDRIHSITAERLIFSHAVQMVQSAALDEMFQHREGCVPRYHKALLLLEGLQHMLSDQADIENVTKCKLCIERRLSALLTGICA
Chain of Proto-oncogene tyrosine-protein kinase receptor Ret (Homo sapiens) (P07949 whole entry): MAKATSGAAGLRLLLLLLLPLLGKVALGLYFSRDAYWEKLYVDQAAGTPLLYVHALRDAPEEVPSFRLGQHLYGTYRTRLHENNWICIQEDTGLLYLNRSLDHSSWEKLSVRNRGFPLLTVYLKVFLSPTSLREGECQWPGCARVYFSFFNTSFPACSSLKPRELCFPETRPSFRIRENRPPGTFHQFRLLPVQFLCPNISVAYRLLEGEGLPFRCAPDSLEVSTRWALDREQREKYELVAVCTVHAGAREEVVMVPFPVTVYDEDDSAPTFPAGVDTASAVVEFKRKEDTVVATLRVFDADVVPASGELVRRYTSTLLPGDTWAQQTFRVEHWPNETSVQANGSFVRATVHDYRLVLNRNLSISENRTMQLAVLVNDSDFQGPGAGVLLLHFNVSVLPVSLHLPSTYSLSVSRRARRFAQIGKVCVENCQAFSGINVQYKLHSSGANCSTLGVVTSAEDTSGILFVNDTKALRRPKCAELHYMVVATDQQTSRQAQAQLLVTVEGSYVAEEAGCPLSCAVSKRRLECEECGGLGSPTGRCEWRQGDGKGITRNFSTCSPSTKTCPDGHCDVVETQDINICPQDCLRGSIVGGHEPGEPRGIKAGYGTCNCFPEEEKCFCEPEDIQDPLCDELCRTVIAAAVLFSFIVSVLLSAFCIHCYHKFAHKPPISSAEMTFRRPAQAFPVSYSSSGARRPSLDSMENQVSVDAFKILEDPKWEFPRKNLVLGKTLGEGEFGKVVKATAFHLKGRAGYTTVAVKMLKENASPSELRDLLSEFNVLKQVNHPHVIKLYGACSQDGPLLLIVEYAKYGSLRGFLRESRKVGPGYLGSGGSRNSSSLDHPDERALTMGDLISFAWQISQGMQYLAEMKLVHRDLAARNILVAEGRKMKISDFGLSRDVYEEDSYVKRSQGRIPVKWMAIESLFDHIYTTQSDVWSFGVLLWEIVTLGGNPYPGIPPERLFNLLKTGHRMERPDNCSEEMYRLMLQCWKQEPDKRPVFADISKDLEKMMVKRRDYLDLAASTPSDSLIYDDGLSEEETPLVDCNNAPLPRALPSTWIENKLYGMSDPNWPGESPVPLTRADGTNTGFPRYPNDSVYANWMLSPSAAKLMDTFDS
Chain of 5-hydroxytryptamine receptor 1B (Homo sapiens) (P28222 whole entry): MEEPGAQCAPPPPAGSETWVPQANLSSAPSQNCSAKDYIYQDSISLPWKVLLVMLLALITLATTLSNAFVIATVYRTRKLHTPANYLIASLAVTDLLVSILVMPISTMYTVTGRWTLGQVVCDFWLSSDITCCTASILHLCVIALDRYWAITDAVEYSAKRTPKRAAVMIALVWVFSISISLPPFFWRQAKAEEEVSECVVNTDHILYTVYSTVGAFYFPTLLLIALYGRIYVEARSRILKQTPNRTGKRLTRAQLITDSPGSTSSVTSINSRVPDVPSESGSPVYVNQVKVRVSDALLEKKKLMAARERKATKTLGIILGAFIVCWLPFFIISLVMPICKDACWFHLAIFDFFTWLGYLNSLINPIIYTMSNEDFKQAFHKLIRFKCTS
Chain of Serine/threonine-protein kinase OSR1 (Homo sapiens) (O95747 2-527 limits assumed): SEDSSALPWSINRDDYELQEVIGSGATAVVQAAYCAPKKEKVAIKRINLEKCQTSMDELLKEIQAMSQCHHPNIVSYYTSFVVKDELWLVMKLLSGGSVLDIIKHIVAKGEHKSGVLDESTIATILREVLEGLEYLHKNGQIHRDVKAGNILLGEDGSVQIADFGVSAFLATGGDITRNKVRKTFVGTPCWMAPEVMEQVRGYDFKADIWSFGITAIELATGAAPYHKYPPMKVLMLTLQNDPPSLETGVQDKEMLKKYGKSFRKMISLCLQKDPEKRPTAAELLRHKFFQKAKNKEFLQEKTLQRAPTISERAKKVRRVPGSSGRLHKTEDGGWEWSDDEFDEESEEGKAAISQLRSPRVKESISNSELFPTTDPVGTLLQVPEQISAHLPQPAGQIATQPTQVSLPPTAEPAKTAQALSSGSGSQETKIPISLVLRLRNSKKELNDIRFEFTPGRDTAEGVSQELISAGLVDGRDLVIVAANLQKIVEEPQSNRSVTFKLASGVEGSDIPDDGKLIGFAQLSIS
Chain of Wee1-like protein kinase 2 (Homo sapiens) (P0C1S8 whole entry, looked up): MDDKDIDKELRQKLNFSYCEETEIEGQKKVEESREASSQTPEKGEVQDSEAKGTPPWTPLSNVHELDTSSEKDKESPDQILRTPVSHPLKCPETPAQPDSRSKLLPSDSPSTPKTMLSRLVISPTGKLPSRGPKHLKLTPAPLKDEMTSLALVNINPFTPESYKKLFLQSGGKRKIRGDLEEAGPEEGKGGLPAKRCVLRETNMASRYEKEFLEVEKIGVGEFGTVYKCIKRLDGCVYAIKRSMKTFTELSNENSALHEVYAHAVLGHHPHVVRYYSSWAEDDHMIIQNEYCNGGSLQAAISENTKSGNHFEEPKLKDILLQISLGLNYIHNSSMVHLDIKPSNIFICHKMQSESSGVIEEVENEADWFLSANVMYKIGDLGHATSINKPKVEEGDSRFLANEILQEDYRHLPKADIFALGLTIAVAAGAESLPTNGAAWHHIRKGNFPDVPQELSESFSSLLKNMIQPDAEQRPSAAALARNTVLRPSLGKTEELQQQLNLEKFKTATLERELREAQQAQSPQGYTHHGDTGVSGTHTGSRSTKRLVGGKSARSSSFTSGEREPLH
Chain of Beta-2 adrenergic receptor (Homo sapiens) (P07550 whole entry, looked up): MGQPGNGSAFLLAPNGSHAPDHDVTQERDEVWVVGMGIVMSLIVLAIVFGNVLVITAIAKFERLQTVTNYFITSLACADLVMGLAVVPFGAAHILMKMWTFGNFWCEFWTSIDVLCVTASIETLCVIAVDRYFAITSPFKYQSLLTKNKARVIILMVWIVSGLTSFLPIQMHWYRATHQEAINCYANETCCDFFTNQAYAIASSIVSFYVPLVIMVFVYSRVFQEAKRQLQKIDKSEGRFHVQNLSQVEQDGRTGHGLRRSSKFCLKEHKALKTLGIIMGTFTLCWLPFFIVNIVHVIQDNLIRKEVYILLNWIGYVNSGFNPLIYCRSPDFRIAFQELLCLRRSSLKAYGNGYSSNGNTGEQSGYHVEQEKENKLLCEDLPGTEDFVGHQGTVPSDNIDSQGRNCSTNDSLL
Chain of Histamine H2 receptor (Homo sapiens) (P25021 whole entry): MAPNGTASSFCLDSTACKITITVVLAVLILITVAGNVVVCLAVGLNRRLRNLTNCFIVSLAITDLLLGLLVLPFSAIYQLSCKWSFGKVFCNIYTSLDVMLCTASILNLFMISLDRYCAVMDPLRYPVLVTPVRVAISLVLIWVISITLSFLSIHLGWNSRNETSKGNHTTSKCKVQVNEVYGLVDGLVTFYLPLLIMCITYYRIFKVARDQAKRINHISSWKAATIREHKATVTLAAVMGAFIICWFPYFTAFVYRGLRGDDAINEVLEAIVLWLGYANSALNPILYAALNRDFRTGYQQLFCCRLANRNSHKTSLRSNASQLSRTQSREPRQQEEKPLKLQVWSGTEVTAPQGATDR

O=C(Nc1ccc(Oc2ccc(F)cc2)cc1)N1CCc2ncccc2[C@H]1c1ccc(F)cc1 [BAY-897]
inactive: residual activity [1] 98% | residual activity [2] 51% | residual activity [3] 100% | residual activity [4] 94% | residual activity [5] 100% | residual activity [6] 90% | residual activity [7] 87% | residual activity [8] 100% | residual activity [9] 93% | residual activity [10] 98% | residual activity [11] 96% | residual activity [12] 93% | residual activity [13] 97% | residual activity [14] 86% | residual activity [15] 97% | residual activity [16] 89% | residual activity [17] 90% | residual activity [18] 82% | residual activity [19] 96% | residual activity [20] 90% | residual activity [21] 100% | residual activity [22] 98% | residual activity [23] 100% | residual activity [24] 100% | residual activity [25] 88% | residual activity [26] 89% | residual activity [27] 94% | residual activity [28] 100% | residual activity [29] 84% | residual activity [30] 100% | residual activity [31] 100% | residual activity [32] 81% | residual activity [33] 99% | residual activity [34] 89% | residual activity [35] 100% | residual activity [36] 97% | residual activity [37] 100% | residual activity [38] 75% | inhibition [39] 18.8% | inhibition [40] 16.9% | inhibition [41] 7.29% | inhibition [42] 25.6% | inhibition [43] 22.4%

O=C(Nc1cnc(Oc2ccc(F)cc2)nc1)N1CCc2ncccc2[C@@H]1c1ccc(F)cc1 [BAY-899]
inactive: residual activity [1] 97% | residual activity [2] 57% | residual activity [3] 93% | residual activity [4] 100% | residual activity [5] 85% | residual activity [6] 80% | residual activity [7] 98% | residual activity [8] 94% | residual activity [9] 98% | residual activity [10] 100% | residual activity [11] 100% | residual activity [12] 79% | residual activity [13] 99% | residual activity [14] 81% | residual activity [15] 100% | residual activity [16] 96% | residual activity [17] 87% | residual activity [18] 90% | residual activity [19] 100% | residual activity [20] 93% | residual activity [21] 95% | residual activity [22] 96% | residual activity [23] 100% | residual activity [24] 100% | residual activity [25] 93% | residual activity [26] 100% | residual activity [27] 94% | residual activity [28] 99% | residual activity [29] 97% | residual activity [30] 100% | residual activity [31] 87% | residual activity [32] 87% | residual activity [33] 93% | residual activity [34] 88% | residual activity [35] 88% | residual activity [36] 100% | residual activity [37] 95% | residual activity [38] 96% | inhibition [39] 36.4% | inhibition [40] -3.59% | inhibition [41] 2.75% | inhibition [42] 25.3% | inhibition [43] 26%
